Source: patent publication US7745191B2, “Method of producing heterodimer derivative of protein phosphatase type 2A enzyme” (Tropical Technology Center Ltd., priority 2005, dated 2010)

Assay: Phosphatase activity of the purified protein using p-nitrophenylphosphate as substrate
Format: biochemical
Conditions: infected High Five cells incubated at 19° C. for 4 days versus 27° C. for 3 days (comparative example); FIG. 4
Protocol: By SDS-PAGE (0.2 μg of protein; 10% SDS-gel), the purified recombinant protein in the recovered eluate was confirmed. The activity of the purified protein was determined according to a method using p-nitrophenylphosphate as substrate (Takai et al. 1995, Biochem J. 306:657-665).
In both figures, the term “27° C.” indicates the tagged catalytic unit of PP2A (comparative example), which was prepared in the same manner as in Example 3 except that the cells infected with the recombinant baculovirus was incubated at 27° C. for 3 days. In FIG. 3, the both end side lanes indicate a marker, the 2nd lane from left indicates the tagged catalytic unit of PP2A prepared by incubation at 27° C., and the 3rd lane from left indicates the tagged catalytic unit of PP2A prepared by incubation at 19° C.

tagged catalytic unit of PP2A: Recombinant human PP2A catalytic subunit carrying a polyhistidine tag (His-PP2Acα, His-PP2Acβ), expressed in baculovirus-infected High Five cells
enhancement of activity to p-nitrophenylphosphate: ≥ 6 times
